Results: paper PMC5093207, “Pre-clinical Evaluation of a Cyanine-Based SPECT Probe for Multimodal Tumor Necrosis Imaging” (Molecular Imaging and Biology, 2016)

How the values were obtained:
[1] = tested on: 4T1-luc2 cells; experiment: Dry ice dead cell assay (cryo-induced cell death), fluorescence and radioactivity read-out; assay type: cell-based, mouse; conditions: 100 nM, 15 min incubation, 4T1 cells; for accumulation in the dead cells area by radioactivity (RA) measurement: phosphor imaging
Protocol: In vitro, cell death was studied using a cryo-induced cell death assay as previously described. In short, 4T1-luc2 cells were seeded onto 24-well tissue culture plates (Sigma-Aldrich) and grown until confluent. After discarding the medium, a bar of dry ice 3–5 mm in diameter was applied to the underside of the culture well for 20 s. Subsequently, the cells were incubated in the dark for 15 min at RT with HQ4 at a concentration of 100 nM. After incubation, the samples were gently washed with phosphate-buffered saline (PBS) and subsequently scanned for fluorescence using the Odyssey Infrared Imager 9120 (LI-COR) and for radioactivity via phosphor imaging on the Typhoon 9410 imager (GE Healthcare).
Fig. 2 In vitro necrosis avid properties of [^111In]DTPA-HQ4 by fluorescence and radioactivity measurements. a Necrotic cell death in confluent monolayers of 4T1 mouse breast cancer cells was induced by applying dry ice to the underside of the culture well. Cells were subsequently incubated for 15 min with one of the following: HQ4, HQ4-DTPA, [^111In]DTPA-HQ4, [^111In]DTPA, or ^111In-Cl3 (100 nM, 10 μg). After subsequent washing with PBS, cells were imaged either for fluorescence (FLI, upper panel) or for radioactivity (RA, lower panel). NL = not labeled. b Calculated signal-to-background (S/B) ratio (FLI and RA) of the different compounds obtained from the dry ice assay. The S/B ratio was defined as the signal intensity obtained from the area of dead cells in the center of the well divided by the signal intensity obtained from an area of living cells of the same size in the periphery.

[2] = tested on: 4T1 tumor bearing mice; experiment: Biodistribution (gamma counting of organs) in 4T1 tumor bearing mice, model of spontaneous tumor necrosis; assay type: in vivo, mouse; conditions: 24 h after i.v. injection, 10 μg, 30-35 MBq
Protocol: Approximately 1 × 10^5 4T1-luc2 cells, suspended in 15 μl PBS, were implanted bilateral and subcutaneously onto the upper back of nude mice. Tumors were grown until they reached a size of 6–7 mm in diameter which developed roughly after 1.5–2 weeks of tumor implantation.
(§1) To study the specificity of the radiolabeled HQ4-DTPA versus radiolabeled DTPA in vivo, 10 μg [^111In]DTPA-HQ4 (=10 nmol per mouse) or 10 μg [^111In]DTPA was injected i.v. into mice bearing 4T1-luc2 tumors (n = 3 and 4, respectively). The total injected dose (ID) in each mouse was determined in a dose-calibrator (VDC101, Veenstra Instruments, Joure, the Netherlands).
After the last imaging time point, mice were sacrificed and several tissues were excised, weighed, and counted for radioactivity (Wizard2 2470 automatic gamma scintillation counter, Perkin Elmer, USA) to determine the percentage of the injected dose per gram (%ID/g). The %ID/g was calculated as follows: (((MBq measured in tissue/injected dose) × 100 %) / weight of tissue).
Fig. 3 Optical imaging, SPECT, and biodistribution of [^111In]DTPA-HQ4 in 4T1 breast tumor bearing mice. a Whole body FLI (coronal view) obtained 6–72 h after tail vein injection of [^111In]DTPA-HQ4 (10 nmol, 30–35 MBq). […] Six, 24, 48, and 72 h after probe injection, mice (n = 3 per time point) were sacrificed and the organs, body fluids, and tumors were dissected, weighed, and measured for radioactivity in a gamma counter. At each time point, the amount of radioactivity in the organs is expressed as percentage of the injected dose divided by […] (%ID/w). d TUNEL-stained histological section of a representative 4T1 mouse breast tumor showing a large area of necrosis (brown).
Supplementary Figure 4: Biodistribution of [111In]DTPA. a) Biodistribution of the free chelate [111In]DTPA in 4T1 tumor bearing mice. 24h after probe injection (10 µg, 30-35 MBq), mice (n=4) were sacrificed and the organs, body fluids and tumors were dissected, weighted and measured for radioactivity in a gamma counter. […]

[3] = Radioactivity remaining in the whole mouse body after injection (clearance); assay type: in vivo; conditions: for total injected dose retained in the body: whole mouse body
Protocol: as §1
Supplementary Figure 4: Biodistribution of [111In]DTPA. a) Biodistribution of the free chelate [111In]DTPA in 4T1 tumor bearing mice. 24h after probe injection (10 µg, 30-35 MBq), mice (n=4) were sacrificed and the organs, body fluids and tumors were dissected, weighted and measured for radioactivity in a gamma counter. At each time point, the amount of radioactivity in each organ and tumor is expressed as percentage of the injected dose divided by the weight (%ID/w). b) Total amount of remaining [111In]DTPA-HQ4 and [111In]DTPA in the whole mouse body (% of ID) at the indicated time points 6 to 72h after probe injection.
(§2) (1 picture or pasted object on this page, not shown here)

[4] = tested on: 4T1-luc2 cells; experiment: In vitro MTS viability assay; assay type: cell-based; conditions: Mus musculus, 24 h, 4T1 cells, read-out: IC50 of induced cell death
Protocol: 4T1-luc2 cells were plated in a 96-well plate (Costar) in 100 μl medium at a density of 10,000 cells per well and left over night to adhere. The next day, the medium was replaced with medium containing the experimental compounds: HQ4, HQ4-DTPA, HQ5, and Gambogic acid (GA), three wells per condition. After 24 h, cell viability was measured using a nonradioactive colorimetric MTS viability assay (Promega Benelux) according to the manufacturer’s protocol. Optical absorption was measured at 490 nm with a Versamax absorbance microplate reader (Molecular Devices).
Supplementary Figure 3: MTS cell viability assay of various agents.
Confluent cultures of 4T1 cells were incubated for 24hr with various concentrations HQ4, HQ4-DTPA, HQ5 or the natural anti-cancer compound Gambogic Acid (GA). Relative cell viability (%) was expressed as a percentage relative to the untreated control.
GA induced cell death with an IC50 of around 6µM.
as §2

O=C([O-])CN(CCN(CC(=O)[O-])CC(=O)[O-])CCN(CC(=O)[O-])CC(=O)[O-].[111In+3].[H+].[H+] [[^111In]DTPA]
accumulation in the dead cells area by radioactivity (RA) measurement [1]: neither [^111In]DTPA nor free ^111In-Cl3 accumulated in the dead cells area
radioactivity in kidneys [2]: 5.0 %ID/w
radioactivity in liver [2]: 0.6 %ID/w
radioactivity in tumors [2]: 0.5 %ID/w
total injected dose retained in the body ([3]; 24 h after injection): 10%
total injected dose retained in the body ([3]; 48 h after injection): 8%
clearance rate relative to [111In]DTPA-HQ4 ([3]; fold faster than [111In]DTPA-HQ4): about 8 fold

CCCNS(=O)(=O)c1cccc2c3c(ccc12)[N+](CCCCCC(=O)NCCOCCOCCNC(=O)CN(CCN(CCN(CC(=O)O)CC(=O)O)CC(=O)O)CC(=O)O)=C(/C=C/C=C/C=C1/N(CCCCS(=O)(=O)[O-])c2ccc4ccccc4c2C1(C)C)C3(C)C [HQ4-DTPA]
accumulation in the area of dead cells by fluorescence imaging ([1]; FLI): strongly accumulated in the area of dead cells

CC(C)=CCC[C@]1(C)C=Cc2c(O)c3c(c(CC=C(C)C)c2O1)O[C@]12C(=C[C@@H]4C[C@H]1C(C)(C)O[C@@]2(C/C=C(/C)C(=O)O)C4=O)C3=O [GA, Gambogic acid]
IC50 [4]: ~6 µM

[Cl][In]([Cl])[Cl] [^111In-Cl3, ^111indium-chloride]
accumulation in the dead cells area by radioactivity (RA) measurement [1]: neither [^111In]DTPA nor free ^111In-Cl3 accumulated in the dead cells area
